Where no end group is shown, it is not given here. [ ]: non-standard residue; d: D form. Aib = CC(C)(N)C(=O)O; Ahx = NCCCCCC(=O)O
Tested on: HeLa cell (Human cervix adenocarcinoma cell)
Assay: Cell membrane penetrating performance evaluation (flow cytometry of fluorescein-labelled peptide conjugates)
Type: cell-based
Conditions: 2 μM peptide conjugate, 37° C., 2 hours, ratio to Comparative example 2 = (Fn−F1)/(F2−F1), mode values, flow cytometer
Procedure: Test example 1: Cell Membrane Penetrating Performance Evaluation
HeLa cell (Human cervix adenocarcinoma cell) was cultivated in a culture fluid containing 2 μM of the peptide conjugate of Examples 1 to 9 or Comparative examples 1 to 6 at 37° C. for 2 hours. Then, the cell was collected and stained with a propidium iodide solution to measure a fluorescence intensity using a flow cytometer, and a fluorescence intensity ratio to Comparative example 2 was calculated in accordance with the following formula.
Fluorescence intensity ratio=(Fn−F1)/(F2−F1)
Fn: Fluorescence intensity mode value of tested compound
F1: Fluorescence intensity mode value of tested compound of Comparative example 1
F2: Fluorescence intensity mode value of tested compound of Comparative example 2

For “F-Ahx-(cargo peptide)-(Arg)9-(Gly)3-(Leu-Leu-Aib)-NH2 (F[Ahx]CGGSGGSCRRRRRRRRRGGGLL[Aib]-NH2; not fully specified (bridges); cysteine pairing not given here) [Example 8]”, the Fluorescence intensity ratio was 2.74.

In the case of “F-Ahx-(cargo peptide)-(Leu-Leu-Ala)-(Gly)3-(Arg)9-NH2 (F[Ahx]CGGSGGSCLLAGGGRRRRRRRRR-NH2; not fully specified (bridges); cysteine pairing not given here) [Example 9]”, the Fluorescence intensity ratio is reported as 3.34.
